The values below come from patent EP1184374A1, “Carboxamide derivatives of pyrrolidine, piperidine and hexahydroazepine for the treatment of thrombosis disorders” (ORTHO PHARMACEUTICAL CORPORATION, priority 1996, dated 1997).

As a reminder, the IC50 is the concentration that gives 50% inhibition. High values mean a need for much substance, low ones inhibition by little substance.

Test [1] relates to gel-filtered platelets. The test is described as follows: In vitro inhibition of thrombin-induced gel-filtered platelet aggregation. In kind it is cell-based. The following applies: Homo sapiens; for inhibition at 50 µM: read-out: Platelet Aggregation % Inh. (50µM). The method, then:
IN VITRO INHIBITION OF THROMBIN-INDUCED GEL-FILTERED PLATELET AGGREGATION ASSAY.
The percentage of platelet aggregation is calculated as an increase in light transmission of compound-treated platelet concentrate vs. control-treated platelet concentrate. Human blood is obtained from drug free, normal donors into tubes containing 0.13M sodium citrate. Platelet rich plasma (PRP) is collected by centrifugation of whole blood at 200 x g for 10 min at 25°C. The PRP (5 mL) is gel filtered through Sepharose 2B (bed volume 50 mL), and the platelet count is adjusted to 2x10^7 platelets per sample. The following constituents are added to a siliconized cuvette: concentrated platelet filtrate and Tyrode's buffer (0.14M NaCl, 0.0027MKCl, 0.012M NaHCO3, 0.76 mM Na2HPO4, 0.0055M glucose, 2 mg/mL BSA and 5.0mM HEPES @ pH 7.4) in an amount equal to 350 µl, 50 µl of 20 mM calcium and 50 µl of the test compound. Aggregation is monitored in a BIODATA aggregometer for the 3 min following the addition of agonist (thrombin 50 µl of 1 unit/mL).

The target of test [2] is GPIIb/IIIa (Homo sapiens, UniProt P05106+P08514). The test is described as follows: In vitro solid phase purified glycoprotein IIb/IIIa binding assay (biotinylated fibrinogen binding). The following applies: for inhibition at 50 µM: read-out: Fibrinogen Binding % Inh. (50 µM). The method, then: IN VITRO SOLID PHASE PURIFIED GLYCOPROTEIN IIB/IIIA BINDING ASSAY.
The plate is covered and incubated overnight at 4°C. The GPIIb/IIa solution is discarded and 150 µl of 5% BSA is added and incubated at RT for 1-3 h. The plate is washed extensively with modified Tyrodes buffer. Biotinylated fibrinogen (25 µl/well) at 2 x final concentration is added to the wells that contain the test compounds (25 µl/well). The plate is covered and incubated at RT for 2-4 h. Twenty minutes prior to incubation completion, one drop of Reagent A (Vecta Stain ABC Horse Radish Peroxidase kit, Vector Laboratories, Inc.) and one drop Reagent B are added with mixing to 5 mL modified Tyrodes buffer mix and let stand. The ligand solution is discarded and the plate washed (5 x 200 µl/well) with modified Tyrodes buffer. Vecta Stain HRP-Biotin-Avidin reagent (50 µl/well, as prepared above) is added and incubated at RT for 15 min. The Vecta Stain solution is discarded and the wells washed (5 x 200 µl/well) with modified Tyrodes buffer. Developing buffer (10 mL of 50 mM citrate/phosphate buffer @ pH 5.3, 6 mg o-phenylenediamine, 6 µl 30% H2O2; 50 µl/well) is added and incubated at RT for 3-5 min, and then 2N H2SO4 (50 µl/well) is added. The absorbance is read at 490 nm.

GPIIb/IIIa, sequence (P08514 32-887 limits assumed): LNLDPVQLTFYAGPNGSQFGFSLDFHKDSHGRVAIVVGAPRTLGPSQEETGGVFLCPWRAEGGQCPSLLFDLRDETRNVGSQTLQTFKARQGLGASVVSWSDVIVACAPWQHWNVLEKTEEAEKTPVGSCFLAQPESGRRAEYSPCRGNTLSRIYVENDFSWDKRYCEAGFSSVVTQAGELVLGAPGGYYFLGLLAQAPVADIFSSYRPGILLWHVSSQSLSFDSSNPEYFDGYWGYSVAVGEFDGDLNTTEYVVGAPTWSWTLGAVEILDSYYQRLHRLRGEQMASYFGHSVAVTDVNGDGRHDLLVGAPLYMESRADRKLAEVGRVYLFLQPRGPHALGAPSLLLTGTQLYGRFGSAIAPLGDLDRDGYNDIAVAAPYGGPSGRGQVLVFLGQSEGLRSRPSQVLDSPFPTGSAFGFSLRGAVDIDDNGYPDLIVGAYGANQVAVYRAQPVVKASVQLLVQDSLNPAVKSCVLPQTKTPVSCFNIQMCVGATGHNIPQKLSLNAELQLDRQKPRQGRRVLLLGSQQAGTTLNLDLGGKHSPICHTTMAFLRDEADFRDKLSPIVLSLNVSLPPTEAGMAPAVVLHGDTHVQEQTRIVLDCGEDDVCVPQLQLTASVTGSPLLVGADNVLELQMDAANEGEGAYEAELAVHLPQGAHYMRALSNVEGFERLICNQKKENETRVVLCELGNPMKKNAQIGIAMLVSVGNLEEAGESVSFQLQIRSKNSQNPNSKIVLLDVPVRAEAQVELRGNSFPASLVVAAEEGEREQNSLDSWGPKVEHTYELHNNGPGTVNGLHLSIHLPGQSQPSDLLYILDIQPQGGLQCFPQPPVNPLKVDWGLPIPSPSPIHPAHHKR
GPIIb/IIIa, sequence (P08514 891-1039 partner limits assumed): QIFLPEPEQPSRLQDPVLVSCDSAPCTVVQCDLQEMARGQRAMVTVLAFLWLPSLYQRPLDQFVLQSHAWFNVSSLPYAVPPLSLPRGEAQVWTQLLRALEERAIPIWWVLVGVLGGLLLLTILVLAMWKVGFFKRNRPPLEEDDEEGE
GPIIb/IIIa, sequence (P05106 27-788): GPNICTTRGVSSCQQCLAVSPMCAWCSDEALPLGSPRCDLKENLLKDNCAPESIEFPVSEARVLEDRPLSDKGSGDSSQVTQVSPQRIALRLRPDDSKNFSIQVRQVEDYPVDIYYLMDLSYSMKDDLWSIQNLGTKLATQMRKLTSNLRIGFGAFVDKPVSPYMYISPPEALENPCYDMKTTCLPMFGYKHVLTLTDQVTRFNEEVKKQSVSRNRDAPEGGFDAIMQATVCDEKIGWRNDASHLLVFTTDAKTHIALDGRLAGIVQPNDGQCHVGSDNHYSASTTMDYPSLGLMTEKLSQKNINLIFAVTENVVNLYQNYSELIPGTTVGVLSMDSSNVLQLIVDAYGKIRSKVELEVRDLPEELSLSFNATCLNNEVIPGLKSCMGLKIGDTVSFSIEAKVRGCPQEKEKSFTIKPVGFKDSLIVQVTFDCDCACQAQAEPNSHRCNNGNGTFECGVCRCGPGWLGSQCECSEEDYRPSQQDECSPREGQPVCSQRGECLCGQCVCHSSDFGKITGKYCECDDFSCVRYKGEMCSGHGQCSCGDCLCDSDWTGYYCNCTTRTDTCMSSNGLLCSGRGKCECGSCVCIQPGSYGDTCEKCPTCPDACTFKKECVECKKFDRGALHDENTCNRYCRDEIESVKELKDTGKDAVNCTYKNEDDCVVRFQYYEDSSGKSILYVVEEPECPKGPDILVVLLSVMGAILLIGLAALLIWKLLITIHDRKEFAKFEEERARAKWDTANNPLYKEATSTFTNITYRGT

Take `O=C(O)CC(NC(=O)C1CCCN(C(=O)CCC2CCNCC2)C1)c1ccccc1` (stereo not drawn) [Compound 1, N-3-(4-Piperidinepropionyl)-nipecotyl-(3-amino-3-phenyl) propionic acid]: in test [1], inhibition was half-maximal at 3.6 µM (IC50) and the inhibition at 50 µM amounted to 83%. In test [2], the 50% inhibitory concentration (IC50) is 0.003 µM and the inhibition at 50 µM worked out at 95%.

For `CC(CNC(=O)C1CCCN(C(=O)NCC2CCNCC2)C1)C(=O)O` (stereo not drawn) [Compound 2, N-(4-Piperidinemethylaminocarbonyl)-nipecotyl-(3-amino-2-methyl) propionic acid], the IC50 in test [1] was 54 µM; in test [2], 0.027 µM. Further, the inhibition at 50 µM amounted to 95.7% in test [1] and 93% in test [2].

As for `CN1CCN(CCC(=O)N2CCCC(C(=O)NC(CC(=O)O)c3ccc4c(c3)OCO4)C2)CC1` (stereo not drawn) [Compound 14, N-3-(4-N-Methyl-piperazinepropionyl)-nipecotyl-[3-amino-3-(3,4-methylenedioxyphenyl)]propionic acid], in test [1], the half-inhibitory concentration (IC50) is 0.91 µM and the inhibition at 50 µM turned out to be 91%. In test [2], the half-maximal inhibitory concentration (IC50) came out at 0.004 µM and the inhibition at 50 µM worked out at 99%.

Turning to `Cc1ccc(C(CC(=O)O)NC(=O)C2CCN(C(=O)CCC3CCNCC3)C2)cc1` (stereo not drawn) [Compound 4, N-3-(4-Piperidinepropionyl)-pyrrolidine-3-carboxy-[3-amino-3-(4-tolyl)]propionic acid], the IC50 in test [1] was found to be 26 µM; in test [2], 0.121 µM. Moreover, the results for the inhibition at 50 µM in test [1] and in test [2] were 81% and 89.9%, respectively.

For the molecule `O=C(O)C[C@H](NC(=O)C1CCCN(CCCC2CCNCC2)C1)c1ccc2c(c1)OCO2` (stereo partly drawn) [Compound 20, N-3-(4-Piperidinepropyl)-nipecotyl-[(S)-3-amino-3-(3,4-methylenedioxyphenyl)]propionic acid], in test [1], the half-inhibitory concentration (IC50) came out at 37 µM and the inhibition at 50 µM turned out to be 89.7%. In addition, in test [2], the inhibition at 50 µM came to 99%.

Turning to `NCCCCCC(=O)N1CCCC(C(=O)NC(CC(=O)O)c2cccnc2)C1` (stereo not drawn) [Compound 10, N-(6-Aminocaproyl)-nipecotyl-3-amino-3-(3-pyridyl)propionic acid], the IC50 in test [1] was found to be 1.6 µM. For the same molecule, the values for the inhibition at 50 µM in test [1] and in test [2] were 85% and 91.3%, respectively.

In the case of `CC(CC(=O)O)NC(=O)C1CCN(C(=O)CCC2CCNCC2)CC1` (stereo not drawn) [Compound 5, N-3-(4-Piperidinepropionyl)-isonipecotyl-(3-amino-3-methyl) propionic acid], in test [1], the IC50 was found to be 10 µM and the inhibition at 50 µM was 100%. Further, in test [2], the IC50 was 0.012 µM and the inhibition at 50 µM worked out at 89%.

As for `N=CN1CCC(CCC(=O)N2CCCC(C(=O)NC(CC(=O)O)c3cccnc3)C2)CC1` [Compound 33, N-3-(4-Formamidinopiperidinepropionyl)-R-(-)nipecotyl-[(S)-3-amino-3-(3-pyridyl)] propionic acid], in test [1], 0.3 µM corresponded to half-maximal inhibition (IC50) and the inhibition at 50 µM came out at 100%. For the same molecule, the inhibition at 50 µM in test [2] amounted to 100%.

As for `CN1CCC(CCC(=O)N2CCCC(C(=O)NCCC(=O)O)C2)CC1` (stereo not drawn) [Compound 7, N-3-(4-N-Methyl-piperidinepropionyl)-nipecotyl-3-aminopropionic acid], the IC50 in test [1] came to 2.4 µM; in test [2] it was 0.006 µM. For the same molecule, the inhibition at 50 µM in test [1] amounted to 75.6%; in test [2] it was 100%.

As for `O=C(NCCc1nnn[nH]1)C1CCCN(C(=O)CCC2CCNCC2)C1` (stereo not drawn) [Compound 13, N-3-(4-Piperidinepropionyl)-nipecotyl-5H-(2-aminoethyl)tetrazole], in test [1], half-maximal inhibition (IC50) was put at 25.5 µM and the inhibition at 50 µM was 67%. Also, in test [2], the IC50 was 1.39 µM and the inhibition at 50 µM was 95%.

Regarding `O=C(O)CC(NC(=O)C1CCN(C(=O)CCC2CCNCC2)CC1)c1ccc(C(=O)O)cc1` (stereo not drawn) [Compound 6], in test [1], the IC50 stood at 73 µM and the inhibition at 50 µM came to 71.2%. In test [2], the IC50 came to 0.197 µM and the inhibition at 50 µM stood at 90.7%.

Consider `O=C(O)C[C@H](NC(=O)[C@@H]1CCCN(C(=O)CCC2CCNCC2)C1)c1cncc(Br)c1` [Compound 32, N-3-(4-Piperidinepropionyl)-R-(-)nipecotyl-[(S)-3-amino-3-(5-bromo-3-pyridyl)] propionic acid], for which half-maximal inhibition in test [1] (IC50) was put at 0.02 µM. Further, in test [2], the inhibition at 50 µM was found to be 100%.

Consider `COC(=O)[C@@H](CC(=O)O)NC(=O)C1CCCN(C(=O)OCC2CCNCC2)C1` (stereo partly drawn) [Compound 3, N-(4-Piperidinemethyloxycarbonyl)-nipecotyl-D-aspartic acid α-methyl ester], for which, in test [1], the half-maximal inhibitory concentration (IC50) was above 100 µM and the inhibition at 50 µM was 26.2%. The inhibition at 50 µM in test [2] came out at 81%.

In test [1], `O=C(O)C(O)CNC(=O)[C@@H]1CCCN(C(=O)CCC2CCNCC2)C1` (single isomer, unassigned) [Compound 11, N-3-(4-Piperidinepropionyl)-R-(-)-nipecotyl-(3-amino-2-hydroxy) propionic acid] yielded an IC50 of 1.55 µM. Further, the inhibition at 50 µM in test [1] is 99.2%; in test [2] it was 79.6%.

Turning to `O=C(O)CCNC(=O)C1CCCN(S(=O)(=O)CCC2CCNCC2)C1` (stereo not drawn) [Compound 12, N-3-(4-Piperidineethanesulfonyl)-nipecotyl-3-aminopropionic acid], in test [1], the 50% inhibitory concentration (IC50) stood at 15.5 µM and the inhibition at 50 µM came out at 88%. Further, in test [2], the IC50 was 0.025 µM and the inhibition at 50 µM worked out at 97%.

Take `O=C(O)CC(NC(=O)C1CCCCN(C(=O)CCC2CCNCC2)C1)c1cnc2ccccc2c1` (stereo not drawn) [Compound 17, N-3-(4-Piperidinepropionyl)-hexahydroazepine-3-carboxy-[3-amino-3-(3-quinolinyl)]propionic acid]: in test [1], the IC50 came out at 0.45 µM and the inhibition at 50 µM was found to be 89.6%. Moreover, in test [2], the 50% inhibitory concentration (IC50) is 0.005 µM and the inhibition at 50 µM was found to be 96%.

With `O=C(O)C1CN(C(=O)C2CCCN(C(=O)CCC3CCNCC3)C2)CCC1=O` (stereo not drawn) [Compound 8, N-3-(4-Piperidinepropionyl)-nipecotyl-4-oxonipecotic acid], in test [2], the IC50 turned out to be 0.332 µM and the inhibition at 50 µM is 93%.

In the case of `O=C(NC[C@@H]1NC(=O)N(Cc2ccccc2)C1=O)[C@@H]1CCCN(C(=O)CCC2CCNCC2)C1` [Compound 29, N-3-(4-Piperidinepropionyl)-R-(-)nipecotyl-aminomethyl-5-(S)-(3-N-benzyl)imidazoline-2.4-dione], in test [1], inhibition was half-maximal at 42 µM (IC50) and the inhibition at 50 µM amounted to 100%. Also, in test [2], the inhibition at 50 µM was 100%.

For the molecule `C[Si](C)(C)C#CC(CC(=O)O)NC(=O)C1CCCN(C(=O)CCC2CCNCC2)C1` (stereo not drawn) [Compound 9, N-3-(4-Piperidinepropionyl)-nipecotyl-[3-amino-3-(2-trimethylsilylethynyl)]propionic acid], the IC50 turned out to be 0.37 µM in test [1] and 0.002 µM in test [2]. The inhibition at 50 µM in test [1] was found to be 90.9%; in test [2], 99%.
